# “Also recorded” adds a separate entry of the source. Read-outs that look alike come from different tables or passages of the source.
# Key:
# [1] = tested on: hop variety Kirin No. 2 (female plant); assay: Forming a male flower on a female plant bred in a greenhouse (Part 3), different chemicals
# Procedure: An over-wintering plant or strain of the hop variety “Kirin No. 2” was cultivated in the same manner as in Example 2.
# Silver thiosulfate (STS) was prepared by mixing sodium thiosulfate pentahydrate and silver nitrate in a molar ratio of 8:1. An area to which water was applied was arranged as a control area.
# Flower buds were observed from the beginning of July and the sexuality was determined from the mid-July.
# [2] = tested on: female plant of Momordica dioica; details: Non Patent Literature 7; cited from earlier work
# Cannabis sativa = details: cited from earlier work
# hop female plant = details: spraying 500 ppm (Non Patent Literature 1); cited from earlier work
molecule,measurement,setting,value
O=[N+]([O-])[O-].[Ag+] [silver nitrate],flower sexuality observed,"[1]; 8 mM, leaf application 4 times about every 10 days, greenhouse",the female flowers were predominantly observed but the male flowers were observed in part; also recorded: female flowers and male flowers
same,flower sexuality observed,"[1]; 16 mM, leaf application 4 times about every 10 days, greenhouse",male flowers were observed; also recorded: male flowers formed
same,flower sexuality observed,"[1]; 32 mM, leaf application 4 times about every 10 days, greenhouse",male flowers were observed; also recorded: male flowers formed
same,condition of applied leaves and growth,"[1]; all treated areas (all concentrations applied), greenhouse",the applied leaves were partially browned but continued growing
same,flower formed on female plant,[2],a hermaphrodite flower is formed
same,flowers formed on main and lateral branches,Cannabis sativa; applied to a growing shoot tip (Non Patent Literature 8),"an intersex flower, an incomplete male flower with few stamens or a complete male flower, together with female flowers, were formed"
"CC(Sc1ccccc1Cl)C(=O)[O-].[Na+] (stereo not drawn) [α (2-chlorophenylthio)propionic acid, sodium salt]",flower formed on hop female plant,hop female plant,a male flower was formed
silver thiosulfate complex [STS],condition of applied leaves and growth,[1]; in vivo,the applied leaves were partially browned but continued growing
same,flower sexuality observed,[1]; in vivo,the female flowers were predominantly observed but the male flowers were observed in part; also recorded: male flowers formed; also recorded: female flowers and male flowers
same,flowers formed on main and lateral branches,Cannabis sativa; in vivo,"an intersex flower, an incomplete male flower with few stamens or a complete male flower, together with female flowers, were formed"

# From patent US9737077B2, “Method for controlling sexuality of hop” (priority 2011, dated 2017)
